In experiment [1] the test system is IL-17 production, human PBMC cells. As to the kind of experiment: IL-17 production assay using human PBMC. Type of experiment: cell-based. The note with it: human PBMC stimulated by cytostim for 3 days, IL-17 ELISA of supernatant. An excerpt:
Test Example 2. IL-17 Production Assay Using Human PBMC
• 1. Human PBMC cells (Cat No. 70025.1, Zenbio) • 2. Lymphocyte medium (Cat No. LYMPH-1, Zenbio) • 3. TexMACS (Cat No. 130-097-196, Miltenyi) • 4. Cytostim-human (Cat No. 1130-092-173, Miltenyi) • 5. Human IL-17 ELISA (Cat No. D1700, R&D systems) • 6. Tecan Infinite M1000 plate reader (Tecan)
Experimental Procedure for IL-17 Production Assay
Cryopreserved peripheral blood human mononuclear cells (PBMCs) were rapidly thawed in warmed Lymphocyte media, and centrifuged cell suspension at 1000 rpm for 10 minutes. The supernatant was removed, and the cell pellets were gently resuspended in TexMACS media.
Human PBMC cells in TexMACS media were plated at 1×10^5 each well in triplicate. The test compounds at various concentrations or vehicle control (<0.5% DMSO) were added into cell culture. The cells were stimulated by cytostim (10 μL/mL) for 3 days in a humidified, 5% CO2 incubator at 37° C.
After incubation, the cell culture supernatant was harvested, and then removed particulates by centrifugation. Human IL-17 in the supernatant was measured using human IL-17 ELISA kit according to the manufacturer's protocol. IC50 values were determined using GraphPad Prism by plotting the compounds concentration versus percent inhibition.
(In general: In an ELISA, binding on a coated surface is turned into a signal by an enzyme label.)

The target of a further experiment is T1, RORγ LBD-GST tagged (Homo sapiens, UniProt P51449).
T1 construct: RORγ LBD-GST tagged (Cat No. RORC-114H, Creative Biomart); purchased Creative Biomart RORC-114H
T1 sequence (P51449 269-508 limits assumed): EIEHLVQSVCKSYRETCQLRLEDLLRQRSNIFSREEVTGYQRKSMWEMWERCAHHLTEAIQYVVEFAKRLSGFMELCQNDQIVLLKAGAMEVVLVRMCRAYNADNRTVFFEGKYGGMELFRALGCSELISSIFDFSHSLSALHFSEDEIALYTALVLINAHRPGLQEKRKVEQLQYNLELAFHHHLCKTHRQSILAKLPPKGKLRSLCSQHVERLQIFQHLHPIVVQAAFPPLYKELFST
As to the kind of experiment: LanthaScreen TR-FRET RORγ coactivator assay. It is filed as biochemical. The settings on record: Fluorescein-D22 coactivator peptide, 1 hour room temperature. The gist of the method: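 GST-tagged RORγ LBD (25 ng/reaction) was incubated in coregulator buffer D with 5 mM DTT and compound (top 3 μM, 7-fold steps, 7 doses), then with a mix containing 0.6 μM fluorescein-D22 peptide and 8 nM Tb anti-GST antibody. After 1 h at room temperature in the dark, 520/495 nm TR-FRET was read. IC50 came from log concentration versus percent inhibition.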
On the technique in general: Time-resolved FRET reads energy transfer from a long-lived donor to a nearby acceptor.

By IC50 is commonly meant the point on the concentration scale where inhibition reaches its midpoint. As for `O=S(=O)(CC1CC1)c1ccc(C(CCO)c2nc3cc(Cl)c(N4CCC(F)(F)CC4)c(Cl)c3[nH]2)cc1` (single isomer, unassigned) [the longer retention time of 160 and 161, 3-(4-((cyclopropylmethyl)sulfonyl)phenyl)-3-(5,7-dichloro-6-(4,4-difluoropiperidin-1-yl)-1H-benzo[d]imidazol-2-yl)propan-1-ol], the half-maximal inhibitory concentration (IC50) amounted to 0.004 µM in experiment [1] and 0.003 µM on RORγ LBD-GST tagged.

As to `NC(=O)CC(c1ccc(S(=O)(=O)CC2CC2)cc1)c1nc2cc(Cl)c(N3CCC(F)(F)CC3)c(Cl)c2[nH]1` (single isomer, unassigned) [the longer retention time of 162 and 163, 3-(4-((cyclopropylmethyl)sulfonyl)phenyl)-3-(5,7-dichloro-6-(4,4-difluoropiperidin-1-yl)-1H-benzo[d]imidazol-2-yl)propanamide], the concentration for half-maximal inhibition (IC50) in experiment [1] was 0.029 µM; against RORγ LBD-GST tagged it was 0.31 µM.

Regarding `CCS(=O)(=O)c1ccc(Cc2nc3c(Cl)c(-c4ccccc4C(F)(F)F)c(Cl)cc3[nH]2)cc1` [Example 3, 4,6-dichloro-2-(4-(ethylsulfonyl)benzyl)-5-(2-(trifluoromethyl)phenyl)-1H-benzo[d]imidazole], the half-inhibitory concentration (IC50) in experiment [1] (Homo sapiens, PBMC, 72 h) was found to be 0.052 µM; on RORγ LBD-GST tagged it was 0.373 µM.

Turning to `CCS(=O)(=O)c1ccc(C(CO)c2nc3c(Cl)c(-c4ccccc4OC(F)(F)F)c(Cl)cc3[nH]2)cc1` (stereo not shown) [Example 4, 2-(4,6-dichloro-5-(2-(trifluoromethoxy)phenyl)-1H-benzo[d]imidazol-2-yl)-2-(4-(ethylsulfonyl)phenyl)ethanol], the IC50 was 0.053 µM in experiment [1] (Homo sapiens, PBMC, 72 h) and 0.16 µM on RORγ LBD-GST tagged.

As for `CCS(=O)(=O)c1ccc(C(O)c2nc3c(Cl)c(-c4ccccc4OC(F)(F)F)c(Cl)cc3[nH]2)cc1` (stereo not shown) [Example 5, (4,6-dichloro-5-(2-(trifluoromethoxy)phenyl)-1H-benzo[d]imidazol-2-yl)(4-(ethylsulfonyl)phenyl)methanol], the IC50 worked out at 0.025 µM in experiment [1] (Homo sapiens, PBMC, 72 h) and 0.626 µM against RORγ LBD-GST tagged.

Take `CCS(=O)(=O)c1ccc(C(CO)c2nc3c(Cl)c(-c4ccccc4OC)c(Cl)cc3[nH]2)cc1` (stereo not shown) [Example 6, 2-(4,6-dichloro-5-(2-methoxyphenyl)-1H-benzo[d]imidazol-2-yl)-2-(4-(ethylsulfonyl)phenyl)ethanol]: the IC50 in experiment [1] (Homo sapiens, PBMC, 72 h) amounted to 0.022 µM; on RORγ LBD-GST tagged, 0.003 µM.

As for `CCS(=O)(=O)c1ccc(C(O)c2nc3c(Cl)c(-c4ccccc4OC)c(Cl)cc3[nH]2)cc1` (stereo not shown) [Example 7, (4,6-dichloro-5-(2-methoxyphenyl)-1H-benzo[d]imidazol-2-yl)(4-(ethylsulfonyl)phenyl)methanol], the IC50 is 0.223 µM in experiment [1] (Homo sapiens, PBMC, 72 h) and 0.086 µM on RORγ LBD-GST tagged.

Take `CCS(=O)(=O)c1ccc(C(CO)c2nc3c(Cl)c(-c4ccccc4OC(C)C)c(Cl)cc3[nH]2)cc1` (stereo not shown) [Example 9, 2-(4,6-dichloro-5-(2-isopropoxyphenyl)-1H-benzo[d]imidazol-2-yl)-2-(4-(ethylsulfonyl)phenyl)ethanol]: the IC50 in experiment [1] (Homo sapiens, PBMC, 72 h) came out at 0.01 µM; against RORγ LBD-GST tagged it was 0.475 µM.

For `CCS(=O)(=O)c1ccc(Cc2nc3c(Cl)c(-c4ccccc4OCOC)c(Cl)cc3[nH]2)cc1` [Example 13, 4,6-dichloro-2-(4-(ethylsulfonyl)benzyl)-5-(2-(methoxymethoxy)phenyl)-1H-benzo[d]imidazole], the IC50 in experiment [1] (Homo sapiens, PBMC, 72 h) was found to be 0.082 µM; at RORγ LBD-GST tagged, 0.675 µM.

Consider `CCS(=O)(=O)c1ccc(C(CO)c2nc3c(Cl)c(-c4ccccc4OCOC)c(Cl)cc3[nH]2)cc1` (stereo not shown) [Example 14, 2-(4,6-dichloro-5-(2-methoxymethoxyphenyl)-1H-benzo[d]imidazol-2-yl)-2-(4-(ethylsulfonyl)phenyl)ethanol], for which the IC50 stood at 0.022 µM in experiment [1] (Homo sapiens, PBMC, 72 h) and 0.086 µM at RORγ LBD-GST tagged.

Take `CCS(=O)(=O)c1ccc(Cc2nc3c(Cl)c(-c4ccccc4OCCOC)c(Cl)cc3[nH]2)cc1` [Example 19, 4,6-dichloro-2-(4-(ethylsulfonyl)benzyl)-5-(2-(2-methoxyethoxy)phenyl)-1H-benzo[d]imidazole]: the IC50 worked out at 0.343 µM in experiment [1] (Homo sapiens, PBMC, 72 h) and 0.052 µM on RORγ LBD-GST tagged.

For the compound `CCS(=O)(=O)c1ccc(C(CO)c2nc3c(Cl)c(-c4ccccc4OCCOC)c(Cl)cc3[nH]2)cc1` (stereo not shown) [Example 20, 2-(4,6-dichloro-5-(2-(2-methoxyethoxy)phenyl)-1H-benzo[d]imidazol-2-yl)-2-(4-(ethylsulfonyl)phenyl)ethanol], the IC50 in experiment [1] (Homo sapiens, PBMC, 72 h) is 0.056 µM; on RORγ LBD-GST tagged it was 0.013 µM.

Regarding `CCS(=O)(=O)c1ccc(C(O)c2nc3c(Cl)c(-c4ccccc4OCCOC)c(Cl)cc3[nH]2)cc1` (stereo not shown) [Example 21, (4,6-dichloro-5-(2-(2-methoxyethoxy)phenyl)-1H-benzo[d]imidazol-2-yl)(4-(ethylsulfonyl)phenyl)methanol], the IC50 in experiment [1] (Homo sapiens, PBMC, 72 h) amounted to 0.453 µM; on RORγ LBD-GST tagged it was 0.083 µM.

Consider `CCS(=O)(=O)c1ccc(C(O)c2nc3c(Cl)c(-c4ccccc4C#N)c(Cl)cc3[nH]2)cc1` (stereo not shown) [Example 23, 2-(4,6-dichloro-2-((4-(ethylsulfonyl)phenyl)(hydroxy)methyl)-1H-benzo[d]imidazol-5-yl)benzonitrile], for which the half-inhibitory concentration (IC50) in experiment [1] (Homo sapiens, PBMC, 72 h) is 0.075 µM; against RORγ LBD-GST tagged, 0.318 µM.

As for `CCS(=O)(=O)c1ccc(C(CO)c2nc3c(Cl)c(-c4ccccc4OC(F)F)c(Cl)cc3[nH]2)cc1` (stereo not shown) [Example 29, 2-(4,6-dichloro-5-(2-(difluoromethoxy)phenyl)-1H-benzo[d]imidazol-2-yl)-2-(4-(ethylsulfonyl)phenyl)ethanol], the IC50 stood at 0.009 µM in experiment [1] (Homo sapiens, PBMC, 72 h) and 0.269 µM against RORγ LBD-GST tagged.

Take `CCS(=O)(=O)c1ccc(C(O)c2nc3c(Cl)c(-c4ccccc4OC(F)F)c(Cl)cc3[nH]2)cc1` (stereo not shown) [Example 30, (4,6-dichloro-5-(2-(difluoromethoxy)phenyl)-1H-benzo[d]imidazol-2-yl)(4-(ethylsulfonyl)phenyl)methanol]: the half-maximal inhibitory concentration (IC50) in experiment [1] (Homo sapiens, PBMC, 72 h) was determined as 0.007 µM; against RORγ LBD-GST tagged, 0.062 µM.

On to `CCS(=O)(=O)c1ccc(Cc2nc3c(Cl)c(-c4ccccc4OCC(F)(F)F)c(Cl)cc3[nH]2)cc1` [Example 31, 4,6-dichloro-2-(4-(ethylsulfonyl)benzyl)-5-(2-(2,2,2-trifluoroethoxy)phenyl)-1H-benzo[d]imidazole], for which the half-maximal inhibitory concentration (IC50) in experiment [1] (Homo sapiens, PBMC, 72 h) worked out at 0.011 µM; against RORγ LBD-GST tagged, 0.01 µM.

With `CCS(=O)(=O)c1ccc(C(CO)c2nc3c(Cl)c(-c4ccccc4OCC(F)(F)F)c(Cl)cc3[nH]2)cc1` (stereo not shown) [Example 32, 2-(4,6-dichloro-5-(2-(2,2,2-trifluoroethoxy)phenyl)-1H-benzo[d]imidazol-2-yl)-2-(4-(ethylsulfonyl)phenyl)ethanol], the half-inhibitory concentration (IC50) in experiment [1] (Homo sapiens, PBMC, 72 h) came out at 0.007 µM; against RORγ LBD-GST tagged it was 0.052 µM.

`CCS(=O)(=O)c1ccc(C(O)c2nc3c(Cl)c(-c4ccccc4OCC(F)(F)F)c(Cl)cc3[nH]2)cc1` (stereo not shown) [Example 33, (4,6-dichloro-5-(2-(2,2,2-trifluoroethoxy)phenyl)-1H-benzo[d]imidazol-2-yl)(4-(ethylsulfonyl)phenyl)methanol]: the IC50 in experiment [1] (Homo sapiens, PBMC, 72 h) stood at 0.015 µM; at RORγ LBD-GST tagged, 0.031 µM.

On to `CCS(=O)(=O)c1ccc(Cc2nc3c(Cl)c(-c4ccccc4CCC(F)(F)F)c(Cl)cc3[nH]2)cc1` [Example 34, 4,6-dichloro-2-(4-(ethylsulfonyl)benzyl)-5-(2-(3,3,3-trifluoropropyl)phenyl)-1H-benzo[d]imidazole], for which the half-inhibitory concentration (IC50) was 0.049 µM in experiment [1] (Homo sapiens, PBMC, 72 h) and 0.016 µM at RORγ LBD-GST tagged.

As to `CCS(=O)(=O)c1ccc(C(O)c2nc3c(Cl)c(-c4ccccc4CCC(F)(F)F)c(Cl)cc3[nH]2)cc1` (stereo not shown) [Example 35, (4,6-dichloro-5-(2-(3,3,3-trifluoropropyl)phenyl)-1H-benzo[d]imidazol-2-yl)(4-(ethylsulfonyl)phenyl)methanol], the half-inhibitory concentration (IC50) in experiment [1] (Homo sapiens, PBMC, 72 h) was 0.008 µM; at RORγ LBD-GST tagged, 0.061 µM.

As to `CCS(=O)(=O)c1ccc(/C(=N\O)c2nc3c(Cl)c(-c4ccccc4OC(F)F)c(Cl)cc3[nH]2)cc1` [Example 38, (E,Z)-(4,6-dichloro-5-(2-(difluoromethoxy)phenyl)-1H-benzo[d]imidazol-2-yl)(4-(ethylsulfonyl)phenyl)methanone oxime], the half-maximal inhibitory concentration (IC50) in experiment [1] (Homo sapiens, PBMC, 72 h) came to 0.873 µM; at RORγ LBD-GST tagged, 0.147 µM.

With `CCS(=O)(=O)c1ccc(C(N)c2nc3c(Cl)c(-c4ccccc4OC(F)F)c(Cl)cc3[nH]2)cc1` (stereo not shown) [Example 39, (4,6-dichloro-5-(2-(difluoromethoxy)phenyl)-1H-benzo[d]imidazol-2-yl)(4-(ethylsulfonyl)phenyl)methanamine], the half-maximal inhibitory concentration (IC50) in experiment [1] (Homo sapiens, PBMC, 72 h) worked out at 0.038 µM; against RORγ LBD-GST tagged, 0.007 µM.

The values are drawn from patent US12187684B2, “Benzimidazole derivatives as modulators of retinoid-related orphan receptor gamma (RORγ) and pharmaceutical use thereof” (Jiangsu Hengrui Medicine Co., Ltd., priority 2018, dated 2025).
